In one series the test system is HeLa. Nature of the series: Antitumour activity against human HeLa cells assessed as reduction in cell viability by MTT assay. The series is classed as functional, cell-based. (Tetrazolium assays rely on reduction of a dye to a coloured formazan, in cell work by metabolically active cells.)
Series [1] relates to HepG2. Nature of the series: Antitumour activity against human HepG2 cells assessed as reduction in cell viability incubated for 48 hrs by MTT assay. The following applies: HepG2, 48 h. The series is classed as functional, cell-based.
For another series, the system named is L929. The series can be described thus: Cytotoxicity against mouse L929 cells assessed as reduction in cell viability measured after 48 hrs. The following applies: for IC50: Mus musculus, L929, 48 h; for Activity: mouse, l929, 48 h. The series is classed as cell-based.
The test system of series [2] is HepG2. The series can be described thus: Induction of cell morphological changes in human HepG2 cells assessed as change in normal spindle cell shape to rounder cells with weak adhesion ability at 40 uM measured after 0 to 48 hrs by fluorescence inversion microscopy analysis. The series is classed as functional, cell-based.
Series [3] concerns HepG2. The series can be described thus: Induction of cell morphological changes in human HepG2 cells assessed as decrease in cell number at 40 uM measured after 0 to 48 hrs by fluorescence inversion microscopy analysis. The series is classed as functional, cell-based.
Series [4] deals with HepG2. The series can be described thus: Induction of cell death in human HepG2 cells at 40 uM measured after 48 hrs by fluorescence inversion microscopy analysis. Type of series: functional, cell-based.

Results on 5 molecules are retold here after ChEMBL document CHEMBL4304823, “Photo-induced synthesis of Axinastatin 3 analogs, the secondary structures and their in vitro antitumor activities” (Bioorg Med Chem Lett, 2019).

Each structure is given as a SMILES string. Values after ≈ are worked out from the molar mass of the structure shown. Active and inactive are the calls of the source. The rule behind the calls is not given here. A value given as a limit tells only on which side of the number the result lay.

Consider `CC(=O)O[C@H]1C(=O)[C@@]2(C)[C@H]([C@H](OC(=O)c3ccccc3)[C@]3(O)C[C@H](OC(=O)[C@H](O)[C@@H](NC(=O)c4ccccc4)c4ccccc4)C(C)=C1C3(C)C)[C@]1(OC(C)=O)CO[C@@H]1C[C@@H]2O` [PACLITAXEL], for which the half-inhibitory concentration (IC50) (in general, the concentration that gives 50% inhibition) with HeLa is above 400 µg/mL; with HepG2 [1] it was 102 µg/mL (≈ 119 µM); with L929, 33 µg/mL (≈ 38.6 µM).
Turning to `CC[C@H](C)[C@@H]1NC(=O)CN2C(=O)c3ccccc3[C@@]2(O)CN(Cc2ccccc2)C(=O)[C@@H]2CCCN2C(=O)[C@H](C(C)C)NC(=O)[C@@H]2CCCN2C(=O)[C@H](CC(C)C)NC1=O`, the IC50 amounted to 41.2 µg/mL (≈ 49.7 µM) with HeLa, 38.4 µg/mL (≈ 46.4 µM) in the series on HepG2 [1] and 50.5 µg/mL (≈ 61 µM) with L929. Further, the Activity entry with L929 was “Dose-dependent effect”.
For `CCNC(=O)CC[C@@H]1NC(=O)CN2C(=O)c3ccccc3[C@@]2(O)CN(Cc2ccccc2)C(=O)[C@H]2CCCN2C(=O)[C@H](C(C)C)NC(=O)[C@H]2CCCN2C(=O)[C@H](CC(C)C)NC(=O)[C@H]([C@@H](C)CC)NC1=O`, the IC50 in the series with HeLa was 280 µg/mL (≈ 285 µM); in the series on HepG2 [1], 64.5 µg/mL (≈ 65.6 µM); in the series on L929, 61.1 µg/mL (≈ 62 µM). In addition, in the series on L929, the Activity result is “Dose-dependent effect”.
For `CC[C@H](C)[C@@H]1NC(=O)CN2C(=O)c3ccccc3[C@@]2(O)CN(Cc2ccccc2)C(=O)[C@H]2CCCN2C(=O)[C@H](C(C)C)NC(=O)[C@H]2CCCN2C(=O)[C@H](CC(C)C)NC1=O`, the result with HepG2 [2], with HepG2 [3] and in the series with HepG2 [4] was Active.
Regarding `CC[C@H](C)[C@@H]1NC(=O)CN2C(=O)c3ccccc3[C@]2(O)CN(Cc2ccccc2)C(=O)[C@@H]2CCCN2C(=O)[C@H](C(C)C)NC(=O)[C@@H]2CCCN2C(=O)[C@H](CC(C)C)NC1=O`, the IC50 with HeLa stood at 89 µg/mL (≈ 107 µM); in the series with HepG2 [1], 72.6 µg/mL (≈ 87.6 µM); in the series with L929 it was 86.2 µg/mL (≈ 104 µM). The Activity result in the series on L929 is “Dose-dependent effect”.
